“Also recorded” adds a separate entry of the source. Where a SMILES comes first, the peptide text is derived from it. [ ]: non-standard residue; d: D form. Thr(SO3H) = C[C@@H](OS(=O)(=O)O)[C@H](N)C(=O)O; sY = N[C@@H](Cc1ccc(OS(=O)(=O)O)cc1)C(=O)O; NMeF = CN[C@@H](Cc1ccccc1)C(=O)O
Legend:
[1] = target: T1, receptors in rat pancreas (3H-CCK-8-(SO3 H) binding) (Rattus norvegicus, UniProt P30551); test: In vitro receptor binding assay, rat pancreas homogenate, 3H-CCK-8-(SO3H) radioligand; settings: 0.15 nM radioligand, 30 min, 25° C.; read-out: Rat Pancreas IC50 (inhibition of specific 3H-CCK-8-(SO3H) binding)
T1 construct: receptors in homogenized preparations of rat pancreatic cells and bovine striata; from tissue; host or cells: rat pancreas homogenate (48,000 x g pellet)
T1 sequence (P30551 1-444): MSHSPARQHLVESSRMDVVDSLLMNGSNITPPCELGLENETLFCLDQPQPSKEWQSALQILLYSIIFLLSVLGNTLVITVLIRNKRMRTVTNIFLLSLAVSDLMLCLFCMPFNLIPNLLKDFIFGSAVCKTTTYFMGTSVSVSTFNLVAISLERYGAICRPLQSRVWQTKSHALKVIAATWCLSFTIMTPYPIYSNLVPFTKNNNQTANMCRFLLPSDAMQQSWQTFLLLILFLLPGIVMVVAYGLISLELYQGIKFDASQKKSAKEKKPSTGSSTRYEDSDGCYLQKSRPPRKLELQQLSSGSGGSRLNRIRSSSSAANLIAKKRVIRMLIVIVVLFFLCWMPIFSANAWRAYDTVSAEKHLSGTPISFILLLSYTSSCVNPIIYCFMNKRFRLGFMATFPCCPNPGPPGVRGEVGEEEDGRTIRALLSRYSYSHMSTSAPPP
Method: This strategy was utilized to minimize central nervous system side effects by identifying peptides with peripheral receptor selectivity. […] The tissue was homogenized 2 x for approx. 15 sec. at 0° C. using a Polytron homogenizer at a setting of 6. The tissue was isolated by centrifugation at 48,000 x g for 10 min. at 0° C. […] Samples were incubated for 30 min. at 25° C. and the incubation terminated by pouring the mixture onto a pre-wet Whatman GF/B filter on a Sandbeck Vacuum Filtration Manifold. The incubation tubes were washed with 2×3 ml of ice-cold HEPES Buffer #2 and the wash filtered through the GF/B filter. The filter was air dried for 10 min. and then placed in a scintillation vial with 12 ml of Beckman HP/b Ready-Solv scintillation cocktail. The vials were shaken for 2 hours and then counted using a Beckman Model 7800 liquid scintillation spectrometer.

[2] = target: T2, receptors in bovine striatum (3H-CCK-8-(SO3 H) binding, central receptor) (Bos taurus, UniProt P79266); test: In vitro receptor binding assay, bovine striatum homogenate, 3H-CCK-8-(SO3H) radioligand; settings: 0.15 nM radioligand, 30 min, 25° C.; read-out: Bovine Striatum IC50 (inhibition of specific 3H-CCK-8-(SO3H) binding)
T2 construct: receptors in homogenized preparations of rat pancreatic cells and bovine striata; from tissue; host or cells: bovine striatum homogenate (48,000 x g pellet)
T2 sequence (P79266 1-454): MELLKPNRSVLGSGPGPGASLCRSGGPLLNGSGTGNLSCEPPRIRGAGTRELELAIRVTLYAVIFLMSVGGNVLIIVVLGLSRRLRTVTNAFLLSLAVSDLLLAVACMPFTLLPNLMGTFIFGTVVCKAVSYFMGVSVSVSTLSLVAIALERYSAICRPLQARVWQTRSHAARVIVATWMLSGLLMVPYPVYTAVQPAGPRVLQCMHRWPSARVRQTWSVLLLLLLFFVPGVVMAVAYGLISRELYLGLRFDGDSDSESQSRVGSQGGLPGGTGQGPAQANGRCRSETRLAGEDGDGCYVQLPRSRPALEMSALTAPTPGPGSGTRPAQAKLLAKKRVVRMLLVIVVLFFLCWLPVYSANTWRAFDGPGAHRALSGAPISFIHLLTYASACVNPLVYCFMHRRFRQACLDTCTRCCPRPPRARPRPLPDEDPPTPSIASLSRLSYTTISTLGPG
Method: Frozen bovine striatum (approx. 5 g) and fresh rat pancreas (approx. 5 g) cleaned of fat and extraneous tissue were homogenized in HEPES buffer #1 (10 mM HEPES+130 mM NaCl+5 mM MgCl2. pH 7.4) using 35 parts buffer per 1 part tissue on a wet weight/volume basis (approx. 175 ml). The tissue was homogenized 2 x for approx. 15 sec. at 0° C. using a Polytron homogenizer at a setting of 6. The tissue was isolated by centrifugation at 48,000 x g for 10 min. at 0° C. The resulting tissue pellet was resuspended in HEPES buffer #2 (10 mM HEPES+130 mM NaCl+5 mM MgCl2 +1 mg/L phenylmethanesulfonyl fluoride (PMSF)+200 mg/L Bacitracin): 1 part striatal tissue (original wet weight) per 80 parts buffer and 1 part pancreas tissue (original wet weight) per 70 parts buffer.
Incubation was initiated by combining various concentrations of native CCK-8 or peptides of formula I, II and III with ^3 H-CCK-8-(SO3 H) (final conc.=0.15 nM) and tissue homogenate (striatum 0.26 mg protein in 2 ml final volume; pancreas 0.165 mg protein in 1 ml final volume). Samples were incubated for 30 min. at 25° C. and the incubation terminated by pouring the mixture onto a pre-wet Whatman GF/B filter on a Sandbeck Vacuum Filtration Manifold. The incubation tubes were washed with 2×3 ml of ice-cold HEPES Buffer #2 and the wash filtered through the GF/B filter. The filter was air dried for 10 min. and then placed in a scintillation vial with 12 ml of Beckman HP/b Ready-Solv scintillation cocktail. The vials were shaken for 2 hours and then counted using a Beckman Model 7800 liquid scintillation spectrometer. Non-specific binding was determined in the presence of 1 micromole native CCK-8 and subtracted from all samples to determine specific binding. The concentration of ^3 peptide necessary to inhibit 50% of total specific H-CCK-8-(SO3 H) binding (IC50 value) was determined by log-probit analysis.

Male rats, food intake = test: Two-meal feeding assay, intranasal administration; type: in vivo, rat; settings: for Food Intake 1st meal (%) / Food Intake 2nd meal (%): saline = 100
Method: Male Sprague-Dawley (CD) rats weighing 180-200 grams (Charles River Breeding Laboratories) were acclimated to a 12 h light/dark cycle (6 a.m. to 6 p.m.) in a room kept at 22° C. They were subsequently fasted for two days, weighed, placed in individual cages, and a four-day period of meal training was begun. During this time the rats were given ground laboratory chow (Purina Lab Chow) in jars for one hour from 9:00 a.m. until 10:00 a.m., the jars were removed from 10:00 a.m. to 12:00 p.m., and placed back in the cages from 12:00 until 1:00 p.m. Under this `1-2-1` meal feeding regime most rats learn to eat approximately as much Per day during the two hours they have access to food as rats which have food ad libitum over the entire 24-hour day. On the fourth day, the rats were weighed again, and any which lost more than five grams body weight were excluded from the test. The animals were then distributed into experimental (n=5 to 6) and control groups (n=6-12). but not matched for body weight.
Male rats were meal trained as described in Example 9. The peptide of Example 2 was dissolved in saline and was administered to the rats intranasally. CCK-8, dissolved in saline was used as a control.

[3] = test system: Male Sprague-Dawley (CD) rats, food intake; test: Two-meal feeding assay, intraperitoneal administration; type: in vivo, rat

IC50 [1]: 2.2 nM
IC50 [2]: 100 to 500 nM
SMILES: CSCC[C@H](NC(=O)[C@H](Cc1ccc(OS(=O)(=O)O)cc1)NC(C)=O)C(=O)NCC(=O)N[C@@H](Cc1c[nH]c2ccccc12)C(=O)N[C@@H](CCSC)C(=O)N[C@H](C(=O)N(C)[C@@H](Cc1ccccc1)C(N)=O)[C@@H](C)OS(=O)(=O)O [Example 2, Ac-Tyr(SO3 H)-Met-Gly-Trp-Met-Thr(SO3 H)-N-methyl-Phe-NH2] (Ac-[sY]MGWM[Thr(SO3H)][NMeF]-NH2)
Food Intake 1st meal Grams consumed (Male rats, food intake; 3 μg/kg intranasal): 7.5 ± 0.8 Grams
Food Intake 2nd meal Grams consumed (Male rats, food intake; 3 μg/kg intranasal): 6.1 ± 0.3 Grams
Food Intake 1st meal (%) (Male rats, food intake; 3 μg/kg intranasal): 102%
Food Intake 2nd meal (%) (Male rats, food intake; 3 μg/kg intranasal): 109%
Food Intake 1st meal Grams consumed (Male rats, food intake; 10 μg/kg intranasal): 5.5 ± 0.6 Grams
Food Intake 2nd meal Grams consumed (Male rats, food intake; 10 μg/kg intranasal): 6.3 ± 0.4 Grams
Food Intake 1st meal (%) (Male rats, food intake; 10 μg/kg intranasal): 74%
Food Intake 2nd meal (%) (Male rats, food intake; 10 μg/kg intranasal): 112%
Food Intake 1st meal Grams consumed (Male rats, food intake; 30 μg/kg intranasal): 5.8 ± 0.7 Grams
Food Intake 2nd meal Grams consumed (Male rats, food intake; 30 μg/kg intranasal): 4.3 ± 0.6 Grams
Food Intake 1st meal (%) (Male rats, food intake; 30 μg/kg intranasal): 78%
Food Intake 2nd meal (%) (Male rats, food intake; 30 μg/kg intranasal): 76%
Food Intake 1st meal Grams consumed (Male rats, food intake; 100 μg/kg intranasal): 3.4 ± 0.4 Grams
Food Intake 2nd meal Grams consumed (Male rats, food intake; 100 μg/kg intranasal): 4.6 ± 0.5 Grams
Food Intake 1st meal (%) (Male rats, food intake; 100 μg/kg intranasal): 46%
Food Intake 2nd meal (%) (Male rats, food intake; 100 μg/kg intranasal): 82%
Food Intake 1st Meal ([3]; 32 microgm/Kg i.p., 15 min before first meal, mean ± SEM): 8 ± 1 % of Control
Food Intake 2nd Meal ([3]; 32 microgm/Kg i.p., mean ± SEM): 26 ± 4 % of Control
Food intake suppression over dosage range compared with CCK-8 (FIG. 1) ([3]; first meal, i.p., dosage range of FIG. 1): effectively reduced food intake during the first meal at a much lower dosage range than did CCK-8; also recorded: effectively suppresses food intake in rats at a lower dosage than does CCK-8

From patent publication US5013722A, “Cholecystokinin analogs for controlling appetite” (Hoffmann-LaRoche Inc., priority 1989, dated 1991)
